Laboratory results as given in patent US20100069393A1, “METHOD OF TREATMENT AND AGENTS USEFUL FOR SAME” (PRANA BIOTECHNOLOGY LIMITED, priority 2006, published 2010).

Legend:
[1] = Mice plasma concentration; assay type: in vivo; details: for Mice plasma concentration: presence in plasma at one or two time points (between 30 min and 4 h); for Mice plasma concentration (single dose) / Mice plasma concentration at 10 mg/kg: one or two time points (between 30 min and 4 h)
[2] = Neurotoxicity assay: MTS viability of primary cortical neuronal cultures; assay type: cell-based, mouse; details: BL6Jx129sv, mouse, primary cortical neuronal cultures, Neuronal cells, read-out: Cytotoxicity (% viable at 1 and 10 uM); for viability at 4 days, 1 uM: test compound 1 uM; for viability at 4 days, 10 uM: test compound 10 uM
Experimental: Media was then replaced with Neurobasal media (Invitrogen Life Technologies) and B27 supplements (Invitrogen Life Technologies). Cultures were maintained at 37° C. in 5% CO2. Prior to experimentation, the culture medium was replaced with Neurobasal media and B27 minus antioxidants (Invitrogen Life Technologies).
Cell viability is determined using the MTS assay. Culture medium is replaced with fresh neurobasal medium plus B27 supplements minus antioxidants. 1/10th volume MTS solution (Cell Titre 96 Aqueous One, Promega Corporation) and incubated at 37° C., 2 hrs. 200 microlitre aliquots are measured with a spectrophotometer at 560 nm.
Neuronal cortical cells were cultured for five days as per Assay 2 in NB media and B27 supplement.
On day six the test compounds were added to the neuronal cell cultures in NB media and B27 supplement minus antioxidants.
Test compounds were dissolved in 100% DMSO to a concentration of 2.5 mM (10 mM if excess compound was weighed out per vial—then diluted to 2.5 mM). […] Test compounds were not added directly to cells, instead they were added to a 48 well ‘Drug Plate’ as comprised below:
The Drug Plate was incubated at 37° C. for 15 mins. 200 μl of each well was added in triplicate to the corresponding cell plate. The cell plate was incubated at 37 C, for 4 days.
On completion of the assay, 1/10 volume MTS was added per well of plate (i.e. 25 μl/250 μl). The plates were incubated at 37 C for 2 hrs, and then absorbance was read at 560 nm.

[3] = In vivo toxicity, visual observations; details: number of days
[4] = Cytotoxicity: viability of M17 cells; details: human, M17 neuroblastoma cells, Cytotoxicity (% viable at 1 and 10 uM); for viability at 1 uM: test compound 1 uM; for viability at 10 uM: test compound 10 uM

## O=C(NCCc1c[nH]cn1)c1ccc2c(Cl)cc(Cl)c(O)c2n1
[1]
  Mice plasma concentration: Up to 2694 ng/mL
[2]
  viability at 4 days, 1 uM: 91%
  viability at 4 days, 10 uM: 84%

## O=c1c(-c2ccc(Cl)cc2)cnc2c(O)c(I)ccn12
[3]
  Toxicity at 30 mg/kg: 10 days, mild toxic signs
[1]
  Mice plasma concentration: Up to 450 ng/mL
[2]
  viability at 4 days, 1 uM: 41%
  viability at 4 days, 10 uM: 33%

## CN(C)Cc1cnc2c(Cl)cc(Cl)c(O)c2n1.Cl
[1]
  Mice plasma concentration: Up to 1000 ng/mL
[2]
  viability at 4 days, 1 uM: 106%
  viability at 4 days, 10 uM: 93%

## O=c1[nH]cnc2c(O)c(Cl)cc(Cl)c12
[3]
  Toxicity at 30 mg/kg: 3 days, none
[1]
  Mice plasma concentration (single dose): Below 100 ng/mL (single dose)
[2]
  viability at 4 days, 1 uM: 100%
  viability at 4 days, 10 uM: 93%

## Oc1c(C2CC2)ncc2cccnc12
[3]
  Toxicity at 30 mg/kg: 6 days, none
[1]
  Mice plasma concentration (single dose): Up to 350 ng/mL (single dose)
[2]
  viability at 4 days, 1 uM: 100%
  viability at 4 days, 10 uM: 98%

## CN1CCCC1CCn1cnc2c(O)c(Cl)cc(Cl)c2c1=O (stereo not drawn)
[3]
  Toxicity at 30 mg/kg: 10 days, none
[1]
  Mice plasma concentration (single dose): Up to 262 ng/mL in mice (single dose)
[2]
  viability at 4 days, 1 uM: 105%
  viability at 4 days, 10 uM: 94%

## O=c1c2c(Cl)cc(Cl)c(O)c2ncn1CCN1CCOCC1
[3]
  Toxicity at 30 mg/kg: 10 days, none
[1]
  Mice plasma concentration (single dose): Up to 10 ng/mL (single dose)
[2]
  viability at 4 days, 1 uM: 98%
  viability at 4 days, 10 uM: 81%

## CN1CCN(n2cnc3c(O)c(Cl)cc(Cl)c3c2=O)CC1
[3]
  Toxicity at 30 mg/kg: 10 days, none
[1]
  Mice plasma concentration: Up to 207 ng/mL
[2]
  viability at 4 days, 1 uM: 96%
  viability at 4 days, 10 uM: 91%

## Cc1cnc(-n2cnc3c(O)c(Cl)cc(Cl)c3c2=O)s1
[3]
  Toxicity at 30 mg/kg: 10 days, mild signs
[2]
  viability at 4 days, 1 uM: 94%
  viability at 4 days, 10 uM: 70%

## O=c1c2c(Cl)cc(Cl)c(O)c2ncn1N1CCCCC1
[3]
  Toxicity at 30 mg/kg: 10 days, none
[4]
  viability at 1 uM: 87.9%
  viability at 10 uM: 72.7%
[2]
  viability at 4 days, 1 uM: 98%
  viability at 4 days, 10 uM: 51%

## O=c1c2c(Cl)cc(Cl)c(O)c2ncn1-c1ccc(Cl)cn1
[3]
  Toxicity at 30 mg/kg: 10 days, none
[4]
  viability at 1 uM: 86.9%
  viability at 10 uM: 70.5%
[2]
  viability at 4 days, 1 uM: 94%
  viability at 4 days, 10 uM: 58%

## CCn1nccc1-n1cnc2c(O)c(Cl)cc(Cl)c2c1=O
[3]
  Toxicity at 30 mg/kg: 10 days, none
[1]
  Mice plasma concentration: Up to 3896 ng/mL
[2]
  viability at 4 days, 1 uM: 102%
  viability at 4 days, 10 uM: 94%

## Cc1ccc(-n2cnc3c(O)c(Cl)cc(Cl)c3c2=O)nc1
[3]
  Toxicity at 30 mg/kg: 10 days, none
[1]
  Mice plasma concentration: Up to 39 ng/mL
[2]
  viability at 4 days, 1 uM: 96%
  viability at 4 days, 10 uM: 83%

## O=c1c2c(Cl)cc(Cl)c(O)c2ncn1N1CCCC1
[3]
  Toxicity at 30 mg/kg: 10 days, none
[2]
  viability at 4 days, 1 uM: 101%
  viability at 4 days, 10 uM: 88%

## O=c1c2c(Cl)cc(Cl)c(O)c2ncn1CCc1ccccn1
[3]
  Toxicity at 30 mg/kg: 10 days, none
[1]
  Mice plasma concentration: Up to 59 ng/mL
[2]
  viability at 4 days, 1 uM: 100%
  viability at 4 days, 10 uM: 92%

## COc1ccc(-n2cnc3c(O)c(Cl)cc(Cl)c3c2=O)nc1
[3]
  Toxicity at 30 mg/kg: 10 days, none
[1]
  Mice plasma concentration (single dose): Up to 80 ng/mL (single dose)
[2]
  viability at 4 days, 1 uM: 122%
  viability at 4 days, 10 uM: 93%

## Br.Cc1cccnc1Cn1cnc2c(O)c(Cl)cc(Cl)c2c1=O
[3]
  Toxicity at 30 mg/kg: 10 days, 3/4 mild signs
[1]
  Mice plasma concentration: Up to 439 ng/mL
[2]
  viability at 4 days, 1 uM: 99%
  viability at 4 days, 10 uM: 88%

## Br.O=c1c2c(Cl)cc(Cl)c(O)c2ncn1Cc1cccc(Cn2cnc3c(Cl)c(Cl)cc(Cl)c3c2=O)n1
[3]
  Toxicity at 30 mg/kg: 10 days, none
[4]
  viability at 1 uM: 94.9%
  viability at 10 uM: 26.8%
[2]
  viability at 4 days, 1 uM: 89%
  viability at 4 days, 10 uM: 67%

## CCCCn1cnc2c(O)c(Cl)cc(Cl)c2c1=O
[4]
  viability at 1 uM: 105%
  viability at 10 uM: 95.4%
[2]
  viability at 4 days, 1 uM: 104%
  viability at 4 days, 10 uM: 85%

## CCn1cnc2c(O)c(Cl)cc(Cl)c2c1=O
[4]
  viability at 1 uM: 104%
  viability at 10 uM: 95.9%
[2]
  viability at 4 days, 1 uM: 93%
  viability at 4 days, 10 uM: 58%

## CCCn1cnc2c(O)c(I)ccc2c1=O
[3]
  Toxicity at 30 mg/kg: 10 days, none
[1]
  Mice plasma concentration (single dose): Up to 1096 ng/mL (single dose)

## O=c1c2ccc(I)c(O)c2ncn1Cc1ccccn1
[3]
  Toxicity at 30 mg/kg: 10 days, none
[4]
  viability at 1 uM: 93.8%
  viability at 10 uM: 84.5%
[1]
  Mice plasma concentration: Up to 1538 ng/mL

## CCn1cnc2c(O)c(I)ccc2c1=O
[3]
  Toxicity at 30 mg/kg: 10 days, none

## CCc1cnc2c(O)c(I)ccn2c1=O
[3]
  Toxicity at 10 mg/kg: At 10 mg/kg 10 days, none
[4]
  viability at 1 uM: 82.5%
  viability at 10 uM: 23.3%
[1]
  Mice plasma concentration at 10 mg/kg: At 10 mg/kg: Up to 7082 ng/mL

## Br.CCN(CC)Cc1nc2c(O)c(Cl)cc(Cl)c2c(=O)[nH]1
[3]
  Toxicity at 30 mg/kg: 10 days, none
[4]
  viability at 1 uM: 106%
  viability at 10 uM: 99.1%
[1]
  Mice plasma concentration: Up to 2289 ng/mL

## CCNC(=O)c1cnc2c(O)c(CC)ncc2c1.Cl
[4]
  viability at 1 uM: 84.4%
  viability at 10 uM: 92.1%
[1]
  Mice plasma concentration (single dose): Up to 125.5 ng/mL (Single dose)

## CCCn1cnc2c(O)c(I)cc(Cl)c2c1=O
[4]
  viability at 1 uM: 120%
  viability at 10 uM: 100%
[1]
  Mice plasma concentration: Up to 4060 ng/mL

## O=c1c2c(Cl)cc(I)c(O)c2ncn1CC1CC1
[3]
  Toxicity at 10 mg/kg: At 10 mg/kg: 10 days, none
[4]
  viability at 1 uM: 97.9%
  viability at 10 uM: 82.3%

## CC(C)c1cnc2c(O)c(I)ccn2c1=O
[3]
  Toxicity at 30 mg/kg: 10 days, 1/4 death, remaining 1/3 mild sings
[4]
  viability at 1 uM: 96.7%
  viability at 10 uM: 44.2%

## CCCCc1cnc2c(O)cccn2c1=O
[3]
  Toxicity at 30 mg/kg: 10 days, none
[4]
  viability at 1 uM: 73.6%
  viability at 10 uM: 37%

## CCCCc1cnc2c(O)c(I)ccn2c1=O
[3]
  Toxicity at 30 mg/kg: 10 days, 2/4 deaths
[4]
  viability at 1 uM: 102%
  viability at 10 uM: 58.7%

## CCCCc1cnc2c(O)cccn2c1=S
[3]
  Toxicity at 30 mg/kg: 7 days, 2/4 deaths
[1]
  Mice plasma concentration: Up to 57 ng/ml ng/mL

## CC(C)Cn1cnc2c(O)c(I)ccc2c1=O
[3]
  Toxicity at 10 mg/kg: At 10 mg/kg: 10 days, none
[4]
  viability at 1 uM: 111%
  viability at 10 uM: 68.2%
[1]
  Mice plasma concentration at 10 mg/kg: At 10 mg/kg: Up to 309 ng/ml ng/mL

## CC(C)n1cnc2c(O)c(I)ccc2c1=O
[3]
  Toxicity at 30 mg/kg: 10 days, 1/4 deaths
[1]
  Mice plasma concentration: Up to 277 ng/ml ng/mL

## O=c1c2ccc(I)c(O)c2ncn1-c1ccc(F)cc1F
[3]
  Toxicity at 30 mg/kg: 6 days, 2/4 deaths
[4]
  viability at 1 uM: 90.3%
  viability at 10 uM: 80.3%

## O=C(NCc1ccc(F)cc1)c1cnc2c(O)c(I)ccn2c1=O
[3]
  Toxicity at 30 mg/kg: 7 days, 4/4 deaths
[4]
  viability at 1 uM: 89.6%
  viability at 10 uM: 23.4%

## CN(C)Cc1ccc2c(Cl)cc(I)c(O)c2n1
[3]
  Toxicity at 30 mg/kg: 1 day, 3/4 deaths
[4]
  viability at 1 uM: 97.9%
  viability at 10 uM: 24.4%

## O=C1NC(=O)c2cc(-n3cnc4c(O)c(Cl)cc(Cl)c4c3=O)ccc21
[3]
  Toxicity at 30 mg/kg: 10 days, none
[4]
  viability at 1 uM: 85.4%
  viability at 10 uM: 93.3%

## O=C(O)Cn1cnc2c(O)c(Cl)cc(Cl)c2c1=O
[3]
  Toxicity at 30 mg/kg: 10 days, none
[4]
  viability at 1 uM: 105%
  viability at 10 uM: 101%

## Nc1cc(Cn2cnc3c(O)c(Cl)cc(Cl)c3c2=O)ccn1
[3]
  Toxicity at 30 mg/kg: 10 days, 1 of 4 deaths
[4]
  viability at 1 uM: 95.1%
  viability at 10 uM: 93.9%
